From patent US12048768B2, “Gastro-resistant controlled release oral dosage forms” (Minerva Neurosciences, Inc., priority 2017, dated 2024)

How the values were obtained:
[1] = as disclosed in U.S. Pat. No. 9,458,130; cited from earlier work
[2] = human, in vivo
[3] = Phase 2b study of MIN-101 in patients with schizophrenia (negative symptoms, cognitive function, CDSS); format: in vivo, human
Method: The oral dosage forms used in this Phase 2b study were the 32 mg MR tablet described in Example 1 below and an essentially identical 64 mg MR tablet.
Thus, in an aspect, administration of a gastro-resistant CR oral dosage form of the present disclosure to a patient with a diagnosis of schizophrenia is intended to improve cognitive function in the patient.
A secondary outcome of the phase 2b study of MIN-101 discussed above was patients' performance on the Calgary Depression Scale for Schizophrenia (CDSS) ADDINGTON D, ADDINGTON J, MATICKA-TYNDALE E. ASSESSING DEPRESSION IN S CHIZOPHRENIA: THE CALGARY DEPRESSION SCALE. BRITISH JOURNAL OF PSYCHIATRY SUPPLEMENT 1993; (22):39-44. The CDSS has little overlap with positive and negative symptoms and has become the recommended scale to assess the severity of depression in patients with schizophrenia. In the phase 2b study, the severity of symptoms as measured by the CDSS was reduced following treatment with 32 or 64 mg of MIN-101 compared to placebo. […] Thus, since the effects of MIN-101 on negative symptoms and depression symptoms in schizophrenia patients were largely independent of each other, MIN-101 has the potential to alleviate one or more depression symptoms in patients who are not schizophrenic.

For Cl.O.O.O=C(CN1CCC(CN2Cc3ccccc3C2=O)CC1)c1ccc(F)cc1 [MIN-101, 1H-Isoindol-1-one, 2-[[1-[2-(4-Fluorophenyl)-2-oxoethyl]-4-piperidinyl]methyl]-2,3-dihydro-, hydrochloride, hydrate (1:1:2)], the “QT prolongation in patients” value [1] is listed as “has been observed”, the “Plasma levels of BFB-520 in CYP2D6 poor metabolizers” value [2] is listed as “high plasma levels of BFB-520” and the Cognitive function ([3]; phase 2b study) is listed as “improvement in cognitive function”. The “Negative symptoms in patients with schizophrenia” value ([3]; phase 2b, 32 mg and 64 mg MR tablets) was “rapid, statistically significant and clinically meaningful reductions in negative symptoms” and the “Severity of depression symptoms as measured by the CDSS” value ([3]; phase 2b, 32 or 64 mg compared to placebo) was “reduced”.
